Legend:
Rhizopus = test: Inhibition of Rhizopus sp. amyloglucosidase at 1000 uM
Prunus dulcis = test: Inhibition of almond beta-glucosidase at 1000 uM
[1] = target: T1, Uncharacterized protein (Sus scrofa) (UniProt I3LIR5); test: Inhibition of pig kidney alpha, alpha trehalase at 1000 uM
T1 sequence (whole entry): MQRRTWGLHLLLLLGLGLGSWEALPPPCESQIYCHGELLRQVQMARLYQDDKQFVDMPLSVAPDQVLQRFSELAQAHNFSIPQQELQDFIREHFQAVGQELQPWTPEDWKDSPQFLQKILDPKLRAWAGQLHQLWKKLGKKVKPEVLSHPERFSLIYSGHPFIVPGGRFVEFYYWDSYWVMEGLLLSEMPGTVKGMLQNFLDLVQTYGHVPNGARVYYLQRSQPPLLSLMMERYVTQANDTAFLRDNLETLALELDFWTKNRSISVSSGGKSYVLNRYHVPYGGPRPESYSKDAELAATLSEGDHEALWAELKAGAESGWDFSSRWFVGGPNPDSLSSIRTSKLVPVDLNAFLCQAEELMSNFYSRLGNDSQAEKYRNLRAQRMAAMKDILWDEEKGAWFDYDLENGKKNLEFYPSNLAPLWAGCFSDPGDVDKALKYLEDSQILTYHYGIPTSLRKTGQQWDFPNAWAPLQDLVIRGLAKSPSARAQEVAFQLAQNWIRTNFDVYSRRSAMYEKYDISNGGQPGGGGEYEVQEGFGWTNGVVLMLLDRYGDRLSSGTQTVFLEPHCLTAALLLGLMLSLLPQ

[2] = target: Alpha-galactosidase (Coffea arabica) (UniProt Q42656); test: Inhibition of coffee bean alpha-galactosidase at 1000 uM
Chain of Alpha-galactosidase (Coffea arabica) (Q42656 16-378 limits assumed): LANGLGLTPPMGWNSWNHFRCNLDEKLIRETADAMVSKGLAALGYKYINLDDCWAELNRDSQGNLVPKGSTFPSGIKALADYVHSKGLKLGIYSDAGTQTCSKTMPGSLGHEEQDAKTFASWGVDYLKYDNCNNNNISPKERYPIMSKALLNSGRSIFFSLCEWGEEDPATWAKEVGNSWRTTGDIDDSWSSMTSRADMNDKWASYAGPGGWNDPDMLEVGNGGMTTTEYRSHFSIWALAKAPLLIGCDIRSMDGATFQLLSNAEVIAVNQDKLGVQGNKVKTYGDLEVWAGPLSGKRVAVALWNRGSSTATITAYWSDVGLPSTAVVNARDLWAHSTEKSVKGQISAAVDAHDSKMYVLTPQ

Helix pomatia = test: Inhibition of snail beta-mannosidase at 1000 uM
[3] = target: T2, Alpha-glucosidase (Aspergillus niger) (UniProt P56526); test: Inhibition of Aspergillus niger alpha-glucosidase at 1000 uM
T2 sequence (whole entry): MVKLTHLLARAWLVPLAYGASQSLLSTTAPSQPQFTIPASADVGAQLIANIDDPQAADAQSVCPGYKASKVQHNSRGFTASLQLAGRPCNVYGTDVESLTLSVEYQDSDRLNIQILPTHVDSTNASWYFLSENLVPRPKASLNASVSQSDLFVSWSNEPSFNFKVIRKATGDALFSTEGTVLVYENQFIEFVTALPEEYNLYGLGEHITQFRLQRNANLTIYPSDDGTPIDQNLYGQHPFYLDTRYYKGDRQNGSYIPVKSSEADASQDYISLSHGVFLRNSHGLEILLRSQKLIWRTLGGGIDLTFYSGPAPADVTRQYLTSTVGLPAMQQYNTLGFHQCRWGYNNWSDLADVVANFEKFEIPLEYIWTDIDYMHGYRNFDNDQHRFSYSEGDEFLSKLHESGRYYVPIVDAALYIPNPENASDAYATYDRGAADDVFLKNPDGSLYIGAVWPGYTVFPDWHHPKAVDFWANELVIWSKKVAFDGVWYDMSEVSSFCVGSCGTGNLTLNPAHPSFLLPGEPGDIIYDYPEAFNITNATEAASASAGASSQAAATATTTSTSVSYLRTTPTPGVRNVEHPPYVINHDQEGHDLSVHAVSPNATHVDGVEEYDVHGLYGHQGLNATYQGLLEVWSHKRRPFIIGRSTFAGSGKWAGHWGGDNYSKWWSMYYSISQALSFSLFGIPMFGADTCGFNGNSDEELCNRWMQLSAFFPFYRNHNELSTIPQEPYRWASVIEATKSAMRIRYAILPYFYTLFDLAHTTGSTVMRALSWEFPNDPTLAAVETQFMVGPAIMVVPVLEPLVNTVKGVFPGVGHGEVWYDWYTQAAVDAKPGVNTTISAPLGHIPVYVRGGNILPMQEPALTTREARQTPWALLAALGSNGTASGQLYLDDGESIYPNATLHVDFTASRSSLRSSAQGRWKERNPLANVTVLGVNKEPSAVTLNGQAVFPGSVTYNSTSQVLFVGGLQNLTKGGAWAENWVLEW

Aspergillus niger [4] = test: Inhibition of Aspergillus niger beta-glucosidase at 1000 uM
[5] = target: Oligo-1,6-glucosidase IMA1 (Saccharomyces cerevisiae S288c) (UniProt P53051); test: Inhibition of yeast alpha-glucosidase at 1000 uM
Chain of Oligo-1,6-glucosidase IMA1 (Saccharomyces cerevisiae S288c) (P53051 whole entry): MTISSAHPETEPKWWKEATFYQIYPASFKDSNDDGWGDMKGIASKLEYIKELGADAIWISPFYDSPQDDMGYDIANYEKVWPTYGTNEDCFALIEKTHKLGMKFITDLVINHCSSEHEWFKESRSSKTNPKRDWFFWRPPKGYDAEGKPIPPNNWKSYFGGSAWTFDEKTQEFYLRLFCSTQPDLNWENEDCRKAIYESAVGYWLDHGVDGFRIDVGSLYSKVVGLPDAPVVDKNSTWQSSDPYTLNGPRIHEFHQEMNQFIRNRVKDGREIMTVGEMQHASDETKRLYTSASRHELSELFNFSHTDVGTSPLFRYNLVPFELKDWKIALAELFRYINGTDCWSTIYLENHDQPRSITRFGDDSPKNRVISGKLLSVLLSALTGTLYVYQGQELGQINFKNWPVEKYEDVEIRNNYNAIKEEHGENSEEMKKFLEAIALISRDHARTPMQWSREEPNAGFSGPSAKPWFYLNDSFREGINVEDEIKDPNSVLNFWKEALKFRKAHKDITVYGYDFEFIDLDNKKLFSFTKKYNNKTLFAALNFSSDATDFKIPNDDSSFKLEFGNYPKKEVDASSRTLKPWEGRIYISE

Oryza sativa = test: Inhibition of rice alpha-glucosidase at 1000 uM
Rattus norvegicus = species on record: Rattus norvegicus; test: Inhibition of rat intestinal maltase alpha-glucosidase at 1000 uM
[6] = target: T3, Beta-glucuronidase (Bos taurus) (UniProt A3KMY8); test: Inhibition of bovine liver beta-glucuronidase at 1000 uM
T3 sequence (whole entry): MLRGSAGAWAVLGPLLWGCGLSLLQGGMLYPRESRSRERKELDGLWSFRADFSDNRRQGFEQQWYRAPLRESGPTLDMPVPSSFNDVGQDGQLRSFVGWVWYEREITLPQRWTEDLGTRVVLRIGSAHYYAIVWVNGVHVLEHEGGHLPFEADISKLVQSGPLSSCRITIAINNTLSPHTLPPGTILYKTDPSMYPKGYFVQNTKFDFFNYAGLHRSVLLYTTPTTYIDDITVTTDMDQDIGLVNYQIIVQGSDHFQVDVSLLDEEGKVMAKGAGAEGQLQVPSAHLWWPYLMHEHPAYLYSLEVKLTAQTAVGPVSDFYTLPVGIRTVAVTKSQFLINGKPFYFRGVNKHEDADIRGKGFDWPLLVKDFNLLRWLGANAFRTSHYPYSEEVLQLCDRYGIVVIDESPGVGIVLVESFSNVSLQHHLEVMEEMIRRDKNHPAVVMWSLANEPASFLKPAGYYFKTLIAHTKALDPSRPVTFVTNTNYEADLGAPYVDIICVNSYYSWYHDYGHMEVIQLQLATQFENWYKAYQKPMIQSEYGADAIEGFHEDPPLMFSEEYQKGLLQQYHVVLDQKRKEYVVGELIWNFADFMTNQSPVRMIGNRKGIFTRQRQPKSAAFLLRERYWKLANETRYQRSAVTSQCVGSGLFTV

Canavalia ensiformis = test: Inhibition of jack beans alpha-mannosidase at 1000 uM
Aspergillus niger [7] = test: Inhibition of Aspergillus niger amyloglucosidase at 1000 uM

Row | Compound | inhibition (Rhizopus) [%] | inhibition (Prunus dulcis) [%] | inhibition [1] [%] | inhibition [2] [%] | inhibition (Helix pomatia) [%] | inhibition [3] [%] | inhibition (Aspergillus niger [4]) [%] | inhibition [5] [%] | inhibition (Oryza sativa) [%] | inhibition (Rattus norvegicus) [%] | inhibition [6] [%] | inhibition (Canavalia ensiformis) [%] | inhibition (Aspergillus niger [7]) [%]
1 | CCC[C@@H]1N[C@@H](CO)[C@@H](O)[C@H](O)[C@H]1O | 0 | 42.6 | 0 | 10.4 | 1.3 | 1.4 | 0 | 40 | 0 | 0 | 0 | 5.1 | 0
2 | CC[C@@H]1NC[C@@H](O)[C@@H](O)[C@H](O)[C@H]1O | 0 | 48.7 | 0 | 7.5 | 0 | 0.2 | 0 | 23.5 | 0 | 13.7 | 0.1 | 11 | 0
3 | CC[C@@H]1N[C@@H](CO)[C@@H](O)[C@H](O)[C@H]1O | 0 | 33.5 | 6 | 0.6 | 0 | 6.1 | 0 | 0 | 0 | 0 | 0.8 | 0 | 0
4 | CC[C@H]1N[C@@H](CO)[C@@H](O)[C@H](O)[C@H]1O | 0 | 16.9 | 0 | 8.7 | 0 | 0 | 0 | 9 | 0 | 3.3 | 0 | 5.1 | 1.9
5 | CC[C@H]1NC[C@@H](O)[C@@H](O)[C@H](O)[C@H]1O | 0 | 5.1 | 3.9 | 1.2 | 0 | 0 | 0 | 0 | 1 | 0 | 0.1 | 0 | 0.8
6 | CC[C@@H]1N[C@H](CC)[C@H](O)[C@@H](O)[C@@H]1O | 3.4 | 21.4 | 4.9 | 3.7 | 0.3 | 0 | 0 | 2 | 1.7 | 0 | 0.5 | 0.4 | 4.1

From ChEMBL document CHEMBL2406948, “Skeletal rearrangement of seven-membered iminosugars: synthesis of (-)-adenophorine, (-)-1-epi-adenophorine and derivatives and evaluation as glycosidase inhibitors” (Bioorg Med Chem, 2013)
